Assay [1] addresses T1, D-Alanyl-D-Alanine ligase (Enterococcus hirae, UniProt Q47827).
T1 sequence (Q47827 1-358): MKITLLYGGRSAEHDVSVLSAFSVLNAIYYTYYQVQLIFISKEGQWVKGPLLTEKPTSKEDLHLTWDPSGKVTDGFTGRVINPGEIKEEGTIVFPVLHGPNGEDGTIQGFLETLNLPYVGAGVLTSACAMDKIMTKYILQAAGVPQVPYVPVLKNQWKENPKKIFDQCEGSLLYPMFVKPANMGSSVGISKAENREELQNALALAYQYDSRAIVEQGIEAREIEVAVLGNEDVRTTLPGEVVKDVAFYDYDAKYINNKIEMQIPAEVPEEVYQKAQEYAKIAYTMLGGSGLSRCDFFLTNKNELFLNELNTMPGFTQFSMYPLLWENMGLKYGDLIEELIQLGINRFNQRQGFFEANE
Briefly: D-Alanyl-D-Alanine ligase inhibition in vitro. Format: biochemical. Particulars: inhibitor pre-incubated with enzyme 40 minutes at room temperature, then 37° C. for 30 minutes; 14C-D-alanine substrate; read-out: IC50 (μM), DAlaAla ligase inhibition. As for the experimental part:
The ligase enzyme inhibitory activity of compounds of Formula I have been evaluated in vitro with only minor modifications of the procedures of F. C. Neuhaus (Biochemistry 3, 471-480 (1964) and references cited therein) using D-cycloserine as a control and standard ligase inhibitor. The procedure is as follows:
Streptococcus faecalis (ATCC 8043) was grown as described by Neuhaus (J. Biol. Chem., 237:778, 1962). Cell-free extracts were prepared by sonication followed by centrifugation at 27,000 x g for 30 minutes. Protein was precipitated with 55% ammonium sulfate. The precipitate was dissolved in 0.05M Tris-Cl buffer (pH 7.0), dialyzed against 0.002M glutathione and stored in liquid nitrogen. No loss of activity was observed after 1 year.
The assay mixture contained 0.05M Tris-Cl buffer (pH 7.9), 0.01M KCl, 0.008M MgCl2, 0.005M ATP, 0.005M (14C-l)-D-alanine and 5 μl of enzyme (specific activity=0.38 units/mg protein). Assay volume was 0.1 ml.
Inhibitors were pre-incubated with enzyme, MgCl2, KCl and buffer, for 40 minutes at room temperature, before addition of ATP and substrate. Samples were subsequently incubated at 37° C. for 30 minutes.
Twenty μl of each sample was applied to the preabsorbent layer of high resolution, prechanneled silica-gel TLC plates to stop the reaction. Plates were developed in ethanol:ammonium hydroxide:H2 O (11:1:8) for 2-3 hours and the radioactive zones located and integrated with a Berthold Linear Analyzer. […] IC50's were determined for active compounds (70% inhibition).

The test system of the next assay is E. coli TEM 2+. Nature of the assay: Agar dilution antibacterial assay (MIC). Format: cell-based. As to conditions: Escherichia coli, read-out: Minimum Inhibitory Concentration, E. coli TEM 2+. An excerpt:
The antibacterial data shown below were obtained using a synthetic agar medium described by F. R. Atherton et al., Antimicrobial Agents and Chemotherapy, 15, 677 (1979).
(Minimum Inhibitory Concentrations from Agar Dilution Assays in mg/ml)
(In general: In agar dilution, organisms are placed on agar that contains the substance at set levels.)

Each structure is given as a SMILES string. ≈ marks a conversion by molar mass, not a printed value.

A word on the IC50: it is the concentration that inhibits the measured activity by half.

Regarding `CCC(CP(=O)(O)C(C)N)C(=O)O` (racemic) [DL, R2=ethyl, R3=H, 1-Aminoethyl-[2-carboxy-1-n-butyl]phosphinic acid], the IC50 in assay [1] came out at 50 µM. In the case of `CCCCCCCC(CP(=O)(O)C(C)N)C(=O)O` (racemic) [DL, R2=n-heptyl, R3=H, 1-Aminoethyl-[2-carboxy-1-nonyl]phosphinic acid], the 50% inhibitory concentration (IC50) in assay [1] amounted to 12.5 µM. In the case of `CCC(CP(=O)(O)[C@@H](C)N)C(=O)O` (stereo partly drawn) [D, R2=ethyl, R3=H, 1-D-Aminoethyl-(2-carboxy-1-n-butyl)phosphinic acid], the MIC with E. coli TEM 2+ was 64 mg/mL (≈ 306 mM).

On to `CC(N)P(=O)(O)CCC(=O)O` (racemic) [DL, R2=H, R3=H, 1-Aminoethyl-[2-carboxy-1-ethyl]phosphinic acid], for which, in assay [1], the IC50 was determined as 535 µM.

Source of the values: US5143908A, “Antibacterial agents and potentiators of carbapenem antibiotics” (Merck & Co., Inc., priority 1990, dated 1992).
